# Source: ChEMBL document CHEMBL2413014, “Imidazolium-based warheads strongly influence activity of water-soluble peptidic transglutaminase inhibitors” (Eur J Med Chem, 2013)
# What was measured:
# [1] = biological target: T1, Coagulation factor XIII A chain (Homo sapiens, UniProt P00488); assay: Inhibition of recombinant human F13a-mediated biotin X-cadaverine incorporation into N,N'-dimethylcasein after 1 hr
# T1 sequence (P00488 whole entry): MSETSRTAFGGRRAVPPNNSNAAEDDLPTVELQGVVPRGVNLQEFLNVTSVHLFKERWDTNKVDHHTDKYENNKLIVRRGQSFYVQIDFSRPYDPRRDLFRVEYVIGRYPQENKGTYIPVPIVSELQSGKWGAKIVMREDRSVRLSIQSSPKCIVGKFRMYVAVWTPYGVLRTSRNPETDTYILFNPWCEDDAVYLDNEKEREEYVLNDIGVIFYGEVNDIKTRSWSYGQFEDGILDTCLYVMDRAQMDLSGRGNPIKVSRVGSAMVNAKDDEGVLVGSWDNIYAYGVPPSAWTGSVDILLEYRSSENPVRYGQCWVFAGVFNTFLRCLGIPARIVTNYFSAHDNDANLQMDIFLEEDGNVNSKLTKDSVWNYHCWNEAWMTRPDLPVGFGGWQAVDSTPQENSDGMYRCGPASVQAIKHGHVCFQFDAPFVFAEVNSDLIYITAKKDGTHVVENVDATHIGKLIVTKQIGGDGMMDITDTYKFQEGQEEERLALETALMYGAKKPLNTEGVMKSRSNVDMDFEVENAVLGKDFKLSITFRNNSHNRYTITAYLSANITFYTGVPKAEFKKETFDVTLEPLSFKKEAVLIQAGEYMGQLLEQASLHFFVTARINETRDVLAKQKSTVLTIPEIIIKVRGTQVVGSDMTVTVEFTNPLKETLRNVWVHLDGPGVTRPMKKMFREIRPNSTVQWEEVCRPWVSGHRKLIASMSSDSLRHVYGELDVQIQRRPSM
# [2] = biological target: T2, Protein-glutamine gamma-glutamyltransferase (Homo sapiens, UniProt P21980); assay: Inhibition of recombinant human tissue transglutaminase-mediated biotin X-cadaverine incorporation into N,N'-dimethylcasein after 1 hr
# T2 sequence (P21980 whole entry): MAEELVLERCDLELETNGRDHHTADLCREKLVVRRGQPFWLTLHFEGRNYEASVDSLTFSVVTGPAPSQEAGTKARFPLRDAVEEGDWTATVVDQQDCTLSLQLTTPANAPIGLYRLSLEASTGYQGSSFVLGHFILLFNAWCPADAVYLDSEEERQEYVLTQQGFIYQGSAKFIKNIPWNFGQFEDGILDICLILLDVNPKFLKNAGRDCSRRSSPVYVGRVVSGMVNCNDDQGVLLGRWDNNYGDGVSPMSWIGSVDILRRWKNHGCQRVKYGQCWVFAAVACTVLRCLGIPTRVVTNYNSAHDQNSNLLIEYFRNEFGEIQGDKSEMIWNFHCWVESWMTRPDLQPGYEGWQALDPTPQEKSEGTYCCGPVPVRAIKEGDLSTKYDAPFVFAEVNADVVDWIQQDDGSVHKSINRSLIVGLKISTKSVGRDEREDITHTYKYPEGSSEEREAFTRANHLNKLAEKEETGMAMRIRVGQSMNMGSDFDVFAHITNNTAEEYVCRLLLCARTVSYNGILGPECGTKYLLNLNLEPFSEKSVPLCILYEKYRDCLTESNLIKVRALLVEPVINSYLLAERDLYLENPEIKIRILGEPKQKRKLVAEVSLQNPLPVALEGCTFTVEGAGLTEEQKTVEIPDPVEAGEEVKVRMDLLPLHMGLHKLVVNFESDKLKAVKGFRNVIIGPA
# NIH3T3 = assay: Cytotoxicity against Swiss mouse 3T3 cells up to 250 uM after 72 hrs; type: cell-based; details: nih3t3, 72 h
Compound,IC50 [1],IC50 [2],Activity (NIH3T3)
Cc1c(C)[n+](C)c(SCC(=O)CC[C@H](NC(=O)CNC(=O)OCc2ccccc2)C(=O)O)n1Cc1ccccc1,> 200 µM,> 200 µM,
CCn1c(C)c(C)[n+](CC)c1SCC(=O)CC[C@H](NC(=O)[C@H](Cc1ccccc1)NC(=O)OCc1ccccc1)C(=O)O,50 µM,> 200 µM,
CC[S+](CC)CC(=O)CC[C@H](NC(=O)CNC(=O)OCc1ccccc1)C(=O)O,> 200 µM,20 µM,
CCCc1c(CCC)[n+](C)c(SCC(=O)CC[C@H](NC(=O)[C@H](Cc2ccccc2)NC(=O)OCc2ccccc2)C(=O)O)n1C,10 µM,5 µM,
CCC[n+]1c(C)c(C)n(C)c1SCC(=O)CC[C@H](NC(=O)[C@H](Cc1ccccc1)NC(=O)OCc1ccccc1)C(=O)O,> 200 µM,> 200 µM,
CCCc1c(CCC)[n+](C)c(SCC(=O)CC[C@H](NC(=O)CNC(=O)OCc2ccccc2)C(=O)O)n1C,20 µM,10 µM,
Cc1c(C)[n+](C)c(SCC(=O)CC[C@H](NC(=O)CNC(=O)OCc2ccccc2)C(=O)O)n1-c1ccccc1,> 200 µM,> 200 µM,
Cc1c(C)[n+](C)c(SCC(=O)CC[C@H](NC(=O)[C@H](Cc2ccccc2)NC(=O)OCc2ccccc2)C(=O)O)n1-c1ccccc1,> 200 µM,> 200 µM,
C[S+](C)CC(=O)CC[C@H](NC(=O)[C@H](Cc1ccccc1)NC(=O)OCc1ccccc1)C(=O)O,105 µM,10 µM,
CC[S+](CC)CC(=O)CC[C@H](NC(=O)[C@H](Cc1ccccc1)NC(=O)OCc1ccccc1)C(=O)O,> 200 µM,20 µM,
CCC[n+]1c(C)c(C)n(C)c1SCC(=O)CC[C@H](NC(=O)CNC(=O)OCc1ccccc1)C(=O)O,30 µM,> 200 µM,
Cc1c(C)[n+](C)c(SCC(=O)CC[C@H](NC(=O)[C@H](Cc2ccccc2)NC(=O)OCc2ccccc2)C(=O)O)n1C.[Br-],5 µM,3 µM,Non-toxic
Cc1c(C)[n+](C)c(SCC(=O)CC[C@H](NC(=O)[C@H](Cc2ccccc2)NC(=O)OCc2ccccc2)C(=O)O)n1Cc1ccccc1,> 200 µM,> 200 µM,
C[S+](C)CC(=O)CC[C@H](NC(=O)CNC(=O)OCc1ccccc1)C(=O)O,> 200 µM,8 µM,
Cc1c(C)[n+](C)c(SCC(=O)CC[C@H](NC(=O)CNC(=O)OCc2ccccc2)C(=O)O)n1C,2 µM,1 µM,
CCn1c(C)c(C)[n+](CC)c1SCC(=O)CC[C@H](NC(=O)CNC(=O)OCc1ccccc1)C(=O)O,> 200 µM,> 200 µM,
